18 molecules from US6150414A, “Compositions and methods for treating viral infections” (priority 1992, dated 2000) can be followed below.

Several values for one entry are separate records, joined by “and”; a condition that tells them apart may be missing. Equal entries are not always repeated. Where two headings read alike, the source gives them in different places.

The experiment deals with Friend Leukemia Virus. Description: Inhibition of Friend Leukemia Virus-induced splenomegaly in mice, compounds intraperitoneally 24 hours after virus (Example 1(a)). The format is in vivo, BALB/c mice. The arrangement: Actual Spleen Weight / Average Spleen Weight: unit not given here. The settings on record: for Actual Spleen Weight: single animal; for inhibition of FV-induced splenomegaly / anti-retroviral activity: Example 1(a); for inhibition in vivo at 0.1 mg / inhibition in vivo at 0.05 mg / inhibition in vivo at 0.2 mg: Mus musculus, ip; for Pooled Average % Inhibition: pooled over 50, 100, 200, 2 × 100 micrograms. The text has this:
The effects of compositions according to the present invention on infection of mammals with Friend Leukemia Virus (FV) were examined.
Friend Leukemia Virus is an aggressive retrovirus which induces an acute erythroleukemia in sensitive strains of mice such as BALB/c and NIH swiss mice as described in Friend, C. J., Exp. Med. 105: 307-324, 1957; Friend, C. et al. Proc. Natl. Acad. Sci. USA 68: 378-383, 1971; Friend, C. et al. Natl. Cancer Inst. Mongr. 22: 508-552, 1966. The malignant transformation is the result of the combined activities of the Spleen Focus Forming Virus (SFFV) and the ecotropic Murine Friend Leukemia Helper Virus (F-MuLV). The acute erythroleukemia is characterized by hepatosplenomegaly (a marked increase in the size of the spleen and liver) and a severe anemia.
Friend Leukemia Virus was prepared by homogenizing the enlarged spleen of a mouse previously infected with FV, 10 days after intravenous virus injection. The spleen was homogenized in phosphate buffered saline in a volume equal to ten times the weight of the isolated spleen.
The effects of compositions according to the present invention on the increase in spleen size (splenomegaly) of BALB/c mice (Jackson Labs, Bar Harbor, ME) was examined. In these experiments, the virus (10^6 focus forming units--FFU) was inoculated intravenously and 100 micrograms of the compounds indicated in Table II were administered to the mice intraperitoneally 24 hours later. Each compound was administered once to two mice. The animals were sacrificed ten days later and their spleens weighed.
The present assay has been developed from similar assays using hypericin or pseudohypericin and employing higher numbers of experimental animals per group (e.g. 4 animals). It was discovered however that the specificity and sensitivity of this assay are such that an experimental group of two animals is of more than adequate predictive value.
As used in Table II (and subsequent Tables of this Example l(a) and (b), "average percent inhibition" is calculated as follows: [formula] wherein "ASWNC" designates "average spleen weight of negative control"; "ASWE" designates "average spleen weight of experimental (treated) subject"; and "ASWPC" designates "average spleen weight of positive control". Average spleen weight is the numerical average of spleen weights of each experimental group (in Table II each such group includes two members).
In these experiments, the virus (10^6 focus forming units--FFU) was inoculated intravenously, and the indicated doses of the antiviral compounds of this invention were administered to the BALB/c mice intraperitoneally 24 hours later. The animals were then sacrificed ten days later and their spleens weighed.
Pseudohypericin was diluted in phosphate buffered saline with 1% ethanol.
An expanded series of experiments was next performed in which various concentrations (i.e. 50, 100, 200 and 2×100, i.e., 100 micrograms administered twice) of a different set of PAC compounds (numbers 16-29 and 30-36 in Table III below) were administered intraperitoneally each according to the same protocol described above. Compounds 16-29 all had 3-5 fused, aromatic rings and no side groups except for oxygen or hydroxyl groups, whereas compounds 30-36 all had 3 fused aromatic rings and side chains selected from the group of oxygen, hydroxyl and methyl.
When 2 doses of the compounds were given, the second dose was administered 24-48 hours after the first injection. The animals were infected and splenomegaly determined as above for the compounds in Table II. In Table III, "pooled average percent inhibition" is calculated by adding the average percent inhibition for each experiment with the same compound and dividing the sum by the number of experiments (i.e. the number 4). […]

Where [1] appears, read: 100 micrograms i.p. once, 24 h after FV, Table II.
[2] abbreviates: 24 h, read-out: Average % Inhibition, 100 micrograms i.p. once, 24 h after FV, Table II.
Setting [3] is: 24 h, 100 micrograms i.p. once, 24 h after FV, Table II, read-out: Average % Inhibition.
The mark [4] stands for this setting: dose 2 × 100 (micrograms) i.p., Table III.
The mark [5] stands for this setting: dose 50 (micrograms) i.p., Table III.
Setting [6] is: dose 100 (micrograms) i.p., Table III.
Setting [7] is: dose 200 (micrograms) i.p., Table III.
The mark [8] stands for this setting: dose 2 × 100 (micrograms) i.p., Table III, read-out: Average Perdosage % Inhibition.
Setting [9] is: dose 50 (micrograms) i.p., Table III, read-out: Average Perdosage % Inhibition.
Where [10] appears, read: dose 100 (micrograms) i.p., Table III, read-out: Average Perdosage % Inhibition.
Where [11] appears, read: dose 200 (micrograms) i.p., Table III, read-out: Average Perdosage % Inhibition.

Regarding `c1cc2cccc3c2c(c1)c1c2c4cccc5cccc(c54)c2c2c4cccc5cccc(c54)c2c31` [Compound 1, Decacyclene], the “inhibition of FV-induced splenomegaly / anti-retroviral activity” value is reported as “significantly inhibited FV-induced splenomegaly”. Besides, under setting [1], the “Average % Inhibition” value stood at 57.5%; the “Average Spleen Weight” value stood at 0.3636; the “Actual Spleen Weight” value is 0.3940 and 0.3331.
Take `O=C1OC(=O)c2ccc3c4ccc5c6c(ccc(c7ccc1c2c73)c64)C(=O)OC5=O` [Compound 2, 3,4,9,10-Perylenetetracarboxylic dianhydride]: under setting [1], the “Average % Inhibition” value is reported as 1.3%; the “Average Spleen Weight” value stood at 0.8439; the “Actual Spleen Weight” value was 0.8678 and 0.8200.
For `O=C1c2ccccc2-c2ccc3c4ccc5c6c(ccc(c7ccc1c2c73)c64)-c1ccccc1C5=O` [Compound 3, Isoviolanthrone], under setting [1], the “Average % Inhibition” value worked out at 41.5%; the “Average Spleen Weight” value was determined as 0.5001; the “Actual Spleen Weight” value was 0.5147 and 0.4855.
Turning to `O=C1c2ccccc2-c2cc(O)c3c4c(O)cc5c6c(ccc(c7ccc1c2c73)c64)C(=O)c1ccccc1-5` [Compound 4, 16,17-Dihydroxydibenzanthrone], under setting [1], the “Average % Inhibition” value is on record as 50.9%; the “Average Spleen Weight” value was 0.4194; the “Actual Spleen Weight” value is 0.4151 and 0.4234.
Turning to `O=c1oc(=O)c2c3ccc4cccc5c6cccc7ccc(c12)c(c76)c3c45` [Compound 5, Benzo(GHI)Perylene-1,2-Dicarboxylic Anhydride], under setting [1], the “Average Spleen Weight” value turned out to be 0.5101. Also, the inhibition in vivo at 0.1 mg under setting [2] is 40.5%.
As to `O=c1oc(=O)c2c3ccc4ccc5ccc6ccc7ccc(c12)c1c7c6c5c4c31` [Compound 6, 3,4-Coronenedicarboxylic anhydride], the “Average Spleen Weight” value under setting [1] was determined as 0.8700.
Take `c1ccc2c(c1)C1c3ccccc3C2c2ccccc21` [Compound 7, Triptycene]: the “inhibition of FV-induced splenomegaly / anti-retroviral activity” value is on record as “significantly inhibited FV-induced splenomegaly”. Besides, the “Average Spleen Weight” value under setting [1] is reported as 0.4655. Moreover, the inhibition in vivo at 0.1 mg under setting [3] came out at 45.6%.
For `c1cc2ccc3ccc4ccc5ccc6ccc1c1c2c3c4c5c61` [Compound 8, Coronene], the “inhibition of FV-induced splenomegaly / anti-retroviral activity” value is “significantly inhibited FV-induced splenomegaly”. For the same molecule, under setting [1], the “Average Spleen Weight” value was 0.4739. Moreover, under setting [2], the inhibition in vivo at 0.1 mg is 44.6%.
For the molecule `Cc1cc2ccc3ccc4ccccc4c3c2c2c1ccc1ccccc12` [Compound 11, 3-Methylphenanthro(3,4-C)Phenanthrene], the “Average Spleen Weight” value under setting [1] was 0.4235. Under setting [2], the inhibition in vivo at 0.1 mg is 50.5%.
`CC1=CC2CCc3ccc4ccccc4c3C2c2c1ccc1ccccc21` (stereo not shown) [Compound 12, 4A,5,6,12C-Tetrahydro-3-Methylphenanthro (3,4-C)phenanthrene]: under setting [1], the “Average Spleen Weight” value worked out at 0.4531. For the same molecule, the inhibition in vivo at 0.1 mg under setting [2] was determined as 47.1%.
Take `O=C1CC2CC(=O)c3ccc4ccccc4c3C2c2c1ccc1ccccc21` (stereo not shown) [Compound 13, 3,4,4A,5,6,12C-Hexahydrophenanthro (3,4-C)Phenanthrene-3,6-Dione]: the “Average Spleen Weight” value under setting [1] worked out at 0.4742. For the same molecule, the inhibition in vivo at 0.1 mg under setting [3] was 44.6%.
For the molecule `c1ccc2c(c1)ccc1ccc3ccc4ccc5ccccc5c4c3c12` [Compound 14, Phenanthro(3,4-C)Phenanthrene], under setting [1], the “Average Spleen Weight” value was 0.5419. Besides, the inhibition in vivo at 0.1 mg under setting [2] amounted to 36.6%.
On to `O=C1CC2CCc3ccc4ccccc4c3C2c2c1ccc1ccccc21` (stereo not shown) [Compound 15, 3,4,4A,5,6,12C-Hexahydrophenanthro (3,4-C)phenanthren-3-one], for which the “Average Spleen Weight” value under setting [1] is 0.3739. In addition, under setting [3], the inhibition in vivo at 0.1 mg came out at 56.3%.
Turning to `C1CCc2c(c3c(c4c2CCCC4)CCCC3)C1` [Compound 16, Dodecahydrotriphenylene], the “Actual Spleen Weight” value (dose 2 × 100 (micrograms) i.p., second dose 24-48 hours later, Table III) is 1.161 and 1.2072; the “Actual Spleen Weight” value under setting [5] is 0.9062 and 0.9954; the “Actual Spleen Weight” value under setting [6] is 1.6206 and 1.5907; the “Actual Spleen Weight” value under setting [7] is 1.2007 and 1.2948. Further, the “Average Perdosage % Inhibition” value reads like this: under setting [4], 28%; under setting [5], 44%; under setting [7], 24%. For the same molecule, the “Average Spleen Weight” value runs as follows: under setting [4], 1.1867; under setting [5], 0.9508; under setting [6], 1.6057; under setting [7], 1.2478. For the setting “Table III”, the “Pooled Average % Inhibition” value is given as 24%.
Turning to `c1ccc2c(c1)ccc1ccccc12` [Compound 17, Phenanthrene], the inhibition in vivo at 0.1 mg was 36% under setting [8] and 21% under setting [10]. Besides, the inhibition in vivo at 0.05 mg under setting [9] is 31%. Moreover, the inhibition in vivo at 0.2 mg under setting [11] is 17%. The “Average Spleen Weight” value by setting is: under setting [4], 1.0683; under setting [5], 1.1350; under setting [6], 1.2864; under setting [7], 1.3501. Besides, the “Pooled Average % Inhibition” value (Table III) is recorded as 26%.
For `c1ccc2c(c1)c1ccccc1c1ccccc21` [Compound 19, Triphenylene], the inhibition in vivo at 0.1 mg reads like this: (read-out: Average Perdosage % Inhibition, dose 2 × 100 (micrograms) i.p., Table III) 13%; (read-out: Average Perdosage % Inhibition, dose 100 (micrograms) i.p., Table III) 4%. Also, where the note is “read-out: Average Perdosage % Inhibition, dose 50 (micrograms) i.p., Table III”, the inhibition in vivo at 0.05 mg came out at 37%. Also, under “read-out: Average Perdosage % Inhibition, dose 200 (micrograms) i.p., Table III”, the inhibition in vivo at 0.2 mg was 13%. Moreover, the “Average Spleen Weight” value is 1.4063 under setting [4], 1.0499 under setting [5], 1.5345 under setting [6] and 1.3994 under setting [7]. Moreover, where the note is “Table III”, the “Pooled Average % Inhibition” value is listed as 17%.
`c1ccc2c(c1)CCc1ccccc1-2` [Compound 20]: the inhibition in vivo at 0.1 mg under setting [8] came to 6%. Moreover, the inhibition in vivo at 0.05 mg under setting [9] came to 22%. Further, under setting [11], the inhibition in vivo at 0.2 mg turned out to be 11%. In addition, the “Average Spleen Weight” value is, setting by setting: under setting [4], 1.5023; under setting [5], 1.2758; under setting [6], 2.0019; under setting [7], 1.4315. Also, the “Pooled Average % Inhibition” value (Table III) is 3%.
On to `C1=CCC2=C(C1)CC1=C(CC=CC1)C2` [Compound 21, 1,4,5,8,9,10-Hexahydroanthracene], for which the inhibition in vivo at 0.1 mg under setting [8] was determined as 23% and the inhibition in vivo at 0.1 mg under setting [10] was determined as 13%. The inhibition in vivo at 0.05 mg under setting [9] was found to be 13%. The inhibition in vivo at 0.2 mg under setting [11] came out at 21%. Further, the “Average Spleen Weight” value reads like this: under setting [4], 1.2624; under setting [5], 1.4036; under setting [6], 1.4121; under setting [7], 1.2947. For the same molecule, where the note is “Table III”, the “Pooled Average % Inhibition” value is on record as 17%.
